Results published in patent US10222368B2 (priority 2012, dated 2019).

Legend:
α7nAChR-FLNA complex = target: T1, α7nAChR-FLNA complex (Homo sapiens, UniProt P21333); assay: α7nAChR/FLNA ELISA of lymphocyte lysates (Example 7); type: cell-based; details: for Optical Density α7nAChR/FLNA (OD450), average: AD lymphocytes + 10 μM C0105, four replicate studies, background subtracted
T1 construct: To determine the levels of FLNA-α7nAChR, FLNA-TLR4 and α7nAChR-Aβ42 complexes in the lymphocytes; endogenous in cells; host or cells: lymphocytes from venous blood of AD patients and control subjects (ex vivo)
Procedure: The capture antibody was the mouse anti-human Filamin A SC-17749 (Santa Cruz Biotechnology), and rabbit anti-human α7nAChR SC-5544 (Santa Cruz Biotechnology Santa Cruz Biotechnology) as the detection antibody. The assays were carried out in Santa Cruz Flat Bottom Plates.
PBS buffer used was 1×PBS (Mg-, and Ca-free) from Thermo Scientific, whereas PBST was 1×PBS+0.05% Tween®-20.
Coating buffer was prepared by dissolving 1.59 g of Na2CO3 in 0.9 L distilled H2O, to which was added 0.1 g NaN3 and 3.93 g of NaHCO3. The pH value was adjusted to 9.6, and the volume adjusted to 1 L with additional distilled H2O. Santa Cruz BSA blocking buffer supplemented with 1% BSA (sc-293965).
The HRP Detection Reagent (TMB) was prepared using 1-Step Ultra TMB-ELISA, (Cat#34028; Thermo Scientific). Standard protocol using 100 μl of the TMB substrate solution per each microplate well, followed by 10-15 minute incubation (or until color develops) and stopping reaction by adding 100 μl of 2 M sulfuric acid to each well. Absorbance (OD450) measured at 450 nm. Santa Cruz BSA blocking buffer was used supplemented with 1% BSA (SC-293965), and assays were carried out using a Molecular Devices Spectramax™ PLUS ELISA plate reader at 450 nm.
AD patient samples: 20 microtubes (labeled #1-#20; 100 ul volume each) with AD patients lymphocytes were received frozen on dry ice. Samples were kept at −20° C. freezer for 1 hour, following thawing at 4° C. […] Ice-cold PBS (300 μl) was added and entire contents were centrifuged to remove insoluble debris.
Normal patient sample was prepared by following procedure: 8 mL of venous blood was collected into cat#362761 BD Vacutainer™ CPT tube (cell preparation tube with sodium citrate) and following manufacturer's recommended protocol for white blood cells isolation (including two centrifugation/PBS wash steps). […] Ice-cold PBS (300 μl) was added and entire content was centrifuged to remove insoluble debris, resulting in “NP sample”.
Compound C0105 treatment was performed using AD patient white blood cells resuspended in 1×PBS and treated with: a) 10 μM Compound C0105 (final concentration), and b) control (PBS only) for 60 minutes at 37° C. (total volume is 400 μl of each sample).
Anti-Filamin A antibody (SC-17749) was diluted in Coating Buffer (at dilution ratio of 1:30) and 100 μl sample loaded per well and incubated 2.5 hours at room temperature (RT). The plate was covered with adhesive cover to prevent evaporation. Followed by washing of the microtiter plate with 150 μl of Blocking Buffer (supplemented with 1% BSA) and added 100 μl of Blocking Buffer to the wells for 30 minutes at RT.
AD samples (AD patients lymphocytes, as described above) were used to generate serial dilution series samples (dilution performed in PBS) and 100 μl sample loaded per well and incubated 1 hour at RT (total protein concentration is indicated as established by Bradford assay, as described above). The plate was covered with adhesive cover to prevent evaporation, followed by washing each well two times with 160 μl PBST Buffer.
After washing of the microtiter plate with washing buffer, 100 μl of α7nAChR primary antibody (SC-5544) were added per well (1:50 dilution ratio) in 1×PBS and incubated for 1 hour at RT.

[1] = target: FLNA association with α7nAChR (Mus musculus, UniProt Q8BTM8); assay: ICV Aβ42 infusion mouse model, synaptosome co-immunoprecipitation; details: 10 mg/kg C0105 i.p. twice daily, 2 weeks; prefrontal cortex and hippocampus

T1 sequence (P21333 2-2647 limits assumed, one chain of several): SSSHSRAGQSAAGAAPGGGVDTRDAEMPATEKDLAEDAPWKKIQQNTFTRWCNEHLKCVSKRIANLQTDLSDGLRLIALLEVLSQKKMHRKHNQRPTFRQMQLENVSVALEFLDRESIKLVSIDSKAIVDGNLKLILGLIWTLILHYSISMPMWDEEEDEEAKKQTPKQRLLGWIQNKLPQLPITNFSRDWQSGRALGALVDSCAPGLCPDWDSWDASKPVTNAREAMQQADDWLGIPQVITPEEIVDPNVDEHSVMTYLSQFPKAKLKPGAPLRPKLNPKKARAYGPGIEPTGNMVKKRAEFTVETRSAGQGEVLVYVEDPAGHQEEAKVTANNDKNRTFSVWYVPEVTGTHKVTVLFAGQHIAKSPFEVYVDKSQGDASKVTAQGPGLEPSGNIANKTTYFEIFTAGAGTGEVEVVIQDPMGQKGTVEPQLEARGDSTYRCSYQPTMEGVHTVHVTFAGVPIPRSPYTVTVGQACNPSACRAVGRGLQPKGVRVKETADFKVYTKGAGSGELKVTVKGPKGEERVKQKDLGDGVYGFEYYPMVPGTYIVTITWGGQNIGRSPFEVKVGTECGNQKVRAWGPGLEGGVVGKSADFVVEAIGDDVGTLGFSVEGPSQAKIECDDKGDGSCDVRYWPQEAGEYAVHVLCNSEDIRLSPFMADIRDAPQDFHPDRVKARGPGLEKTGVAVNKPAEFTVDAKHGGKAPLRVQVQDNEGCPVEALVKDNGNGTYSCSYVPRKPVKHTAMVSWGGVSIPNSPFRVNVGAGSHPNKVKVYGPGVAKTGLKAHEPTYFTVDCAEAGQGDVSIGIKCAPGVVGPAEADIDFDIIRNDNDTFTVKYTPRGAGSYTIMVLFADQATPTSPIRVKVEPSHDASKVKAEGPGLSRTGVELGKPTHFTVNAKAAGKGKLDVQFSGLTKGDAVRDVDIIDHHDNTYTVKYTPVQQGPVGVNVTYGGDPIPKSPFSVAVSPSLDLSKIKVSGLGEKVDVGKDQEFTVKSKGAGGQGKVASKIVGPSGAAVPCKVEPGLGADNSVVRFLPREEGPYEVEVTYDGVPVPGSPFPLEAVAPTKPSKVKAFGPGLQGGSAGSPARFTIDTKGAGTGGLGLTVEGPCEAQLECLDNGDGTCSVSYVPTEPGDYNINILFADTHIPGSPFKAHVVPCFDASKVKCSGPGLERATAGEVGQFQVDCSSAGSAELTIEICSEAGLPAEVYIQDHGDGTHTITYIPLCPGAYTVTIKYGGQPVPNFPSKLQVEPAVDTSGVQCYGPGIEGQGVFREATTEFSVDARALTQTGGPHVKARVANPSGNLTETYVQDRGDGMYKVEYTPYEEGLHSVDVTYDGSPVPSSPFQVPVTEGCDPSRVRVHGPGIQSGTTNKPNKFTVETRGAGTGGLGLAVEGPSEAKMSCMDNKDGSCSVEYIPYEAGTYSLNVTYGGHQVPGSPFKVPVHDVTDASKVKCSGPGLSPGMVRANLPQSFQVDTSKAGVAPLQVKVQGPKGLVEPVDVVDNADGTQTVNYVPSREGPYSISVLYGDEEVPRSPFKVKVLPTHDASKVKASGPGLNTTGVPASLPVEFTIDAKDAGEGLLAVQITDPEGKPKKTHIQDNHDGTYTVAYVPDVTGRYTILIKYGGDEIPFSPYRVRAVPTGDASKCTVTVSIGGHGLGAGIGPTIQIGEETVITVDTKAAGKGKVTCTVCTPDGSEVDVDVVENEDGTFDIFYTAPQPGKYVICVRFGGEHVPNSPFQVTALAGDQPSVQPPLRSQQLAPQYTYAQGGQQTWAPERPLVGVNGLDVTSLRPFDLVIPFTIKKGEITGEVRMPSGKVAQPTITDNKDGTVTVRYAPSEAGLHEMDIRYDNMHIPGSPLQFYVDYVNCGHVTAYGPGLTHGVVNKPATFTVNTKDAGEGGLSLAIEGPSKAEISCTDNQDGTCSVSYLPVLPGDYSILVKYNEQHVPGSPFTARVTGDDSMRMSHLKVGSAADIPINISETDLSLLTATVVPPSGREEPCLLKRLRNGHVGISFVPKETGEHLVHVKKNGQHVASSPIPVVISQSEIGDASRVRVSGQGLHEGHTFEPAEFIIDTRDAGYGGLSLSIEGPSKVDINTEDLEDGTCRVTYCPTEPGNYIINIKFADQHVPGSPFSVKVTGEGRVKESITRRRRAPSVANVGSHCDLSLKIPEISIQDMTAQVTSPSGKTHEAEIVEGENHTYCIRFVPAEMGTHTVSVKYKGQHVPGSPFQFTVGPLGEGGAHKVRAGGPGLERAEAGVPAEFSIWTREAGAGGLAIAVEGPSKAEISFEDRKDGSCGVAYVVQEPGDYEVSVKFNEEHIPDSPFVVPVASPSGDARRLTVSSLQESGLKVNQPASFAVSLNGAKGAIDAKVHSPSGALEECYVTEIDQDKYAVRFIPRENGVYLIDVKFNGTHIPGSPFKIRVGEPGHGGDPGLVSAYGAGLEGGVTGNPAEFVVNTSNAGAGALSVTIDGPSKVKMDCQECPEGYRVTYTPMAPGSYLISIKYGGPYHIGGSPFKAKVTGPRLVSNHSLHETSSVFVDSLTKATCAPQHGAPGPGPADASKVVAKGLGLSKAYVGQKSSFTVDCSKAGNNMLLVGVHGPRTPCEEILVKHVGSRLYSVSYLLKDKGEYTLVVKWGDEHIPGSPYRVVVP

Structure (SMILES): CN1CCC2(CC1)NCC(=O)N2Cc1ccccc1 [Compound C0105]
- Effect on amount of α7nAChR associated with FLNA (in words) (α7nAChR-FLNA complex; 10 μM, AD lymphocytes): significant reduction
- Effect on amount of α7nAChR/FLNA complex (in words) (α7nAChR-FLNA complex; 10 μM, YCI lymphocyte preparation): substantially no difference
- Optical Density α7nAChR/FLNA (OD450), average (α7nAChR-FLNA complex; 1.25 (mg) lysate per well): 0.1572
- Optical Density α7nAChR/FLNA (OD450), average (α7nAChR-FLNA complex; 2.5 (mg) lysate per well): 0.2261
- Optical Density α7nAChR/FLNA (OD450), average (α7nAChR-FLNA complex; 5 (mg) lysate per well): 0.291
- Optical Density α7nAChR/FLNA (OD450), average (α7nAChR-FLNA complex; 10 (mg) lysate per well): 0.3349
- Optical Density α7nAChR/FLNA (OD450), average (α7nAChR-FLNA complex; 20 (mg) lysate per well): 0.4504
- Effect on Aβ42-induced FLNA association with α7nAChR (in words) [1]: reduced Aβ42-induced increases in FLNA associations
